A value given as a limit tells only on which side of the number the result lay.

The target of the experiment is human TYK2 (JH2domain-pseudokinase) (Homo sapiens (Human), UniProt P29597). Description: TYK2 JH2 Domain Binding Assay (KINOMEscan, DiscoveRx). To be noted: 11-point dilution, duplicate. In outline: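 Kd from duplicate 11-point 3-fold dilutions starting at 30,000 nM, fitted by Hill equation with slope fixed at −1. Compounds (final 0.9% DMSO) displace DNA-tagged HEK293-expressed TYK2 JH2 fusion (<0.1 nM) from ligand-coated beads over 1 h at room temperature; eluted kinase read by qPCR.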
human TYK2 (JH2domain-pseudokinase), sequence (P29597 556-888): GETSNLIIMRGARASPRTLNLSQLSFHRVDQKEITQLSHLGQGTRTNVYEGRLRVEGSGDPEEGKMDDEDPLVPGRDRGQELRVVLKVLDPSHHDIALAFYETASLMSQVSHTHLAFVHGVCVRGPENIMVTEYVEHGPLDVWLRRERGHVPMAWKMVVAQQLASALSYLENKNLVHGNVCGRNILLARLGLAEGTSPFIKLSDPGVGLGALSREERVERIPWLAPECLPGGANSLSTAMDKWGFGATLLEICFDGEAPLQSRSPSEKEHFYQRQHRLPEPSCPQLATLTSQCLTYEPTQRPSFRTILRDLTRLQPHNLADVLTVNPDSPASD
`Cn1cnc(-c2ccc(Nc3cc(NC(=O)[C@@H]4CC4(F)F)nc4[nH]c(C(F)F)nc34)c(S(C)(=O)=O)c2)c1` [I-245, (S)—N-(2-(difluoromethyl)-7-((4-(1-methyl-1H-imidazol-4-yl)-2-(methylsulfonyl)phenyl)amino)-3H-imidazo[4,5-b]pyridin-5-yl)-2,2-difluorocyclopropane-1-carboxamide] returned a Kd of 1000 to 10000 pM.

Compound `Cc1cn(C)nc1-c1ccc(Nc2cc(NC(=O)C3CC3)nc3[nH]c(C(F)F)nc23)c(S(C)(=O)=O)c1` [I-246, N-(2-(difluoromethyl)-7-((4-(1,4-dimethyl-1H-pyrazol-3-yl)-2-(methylsulfonyl)phenyl)amino)-3H-imidazo[4,5-b]pyridin-5-yl)cyclopropanecarboxamide] had a dissociation constant Kd of less than 100 pM.

`CS(=O)(=O)c1cc([C@@H]2CCCCO2)ccc1Nc1cc(NC(=O)C2CC2)nc2[nH]c(C(F)F)nc12` [I-247, (S)—N-(2-(difluoromethyl)-7-((2-(methylsulfonyl)-4-(tetrahydro-2H-pyran-2-yl)phenyl)amino)-3H-imidazo[4,5-b]pyridin-5-yl)cyclopropanecarboxamide]: the Kd lay in the range of 100 to 500 pM.

Turning to `CS(=O)(=O)c1cc([C@H]2CCCCO2)ccc1Nc1cc(NC(=O)C2CC2)nc2[nH]c(C(F)F)nc12` [I-248, (R)—N-(2-(difluoromethyl)-7-((2-(methylsulfonyl)-4-(tetrahydro-2H-pyran-2-yl)phenyl)amino)-3H-imidazo[4,5-b]pyridin-5-yl)cyclopropanecarboxamide], the Kd is less than 100 pM.

With `Cc1nc2c(Nc3ccccc3N(C(F)F)S(C)(=O)=O)cc(Nc3cccc(C#N)n3)nc2[nH]1` [I-249, N-(2-((5-((6-cyanopyridin-2-yl)amino)-2-methyl-3H-imidazo[4,5-b]pyridin-7-yl)amino)phenyl)-N-(difluoromethyl)methanesulfonamide], the Kd fell in the range of 1000 to 10000 pM.

The compound `Cc1nc2c(Nc3ccc(-c4cn(C)cn4)cc3S(C)(=O)=O)cc(NC(=O)[C@@H]3C[C@@H]3F)nc2[nH]1` [I-250, (1S,2S)-2-fluoro-N-(2-methyl-7-((4-(1-methyl-1H-imidazol-4-yl)-2-(methylsulfonyl)phenyl)amino)-3H-imidazo[4,5-b]pyridin-5-yl)cyclopropane-1-carboxamide] came in with a Kd of less than 100 pM.

In the case of `Cc1nc2c(Nc3ccc(-c4cn(C)cn4)cc3S(C)(=O)=O)cc(NC(=O)[C@H]3C[C@H]3F)nc2[nH]1` [I-251, (1R,2R)-2-fluoro-N-(2-methyl-7-((4-(1-methyl-1H-imidazol-4-yl)-2-(methylsulfonyl)phenyl)amino)-3H-imidazo[4,5-b]pyridin-5-yl)cyclopropane-1-carboxamide], the Kd lay in the range of 100 to 500 pM.

With `CS(=O)(=O)c1cc([C@H]2CCCOC2)ccc1Nc1cc(NC(=O)C2CC2)nc2[nH]c(C(F)F)nc12` [I-252, (R)—N-(2-(difluoromethyl)-7-((2-(methylsulfonyl)-4-(tetrahydro-2H-pyran-3-yl)phenyl)amino)-3H-imidazo[4,5-b]pyridin-5-yl)cyclopropanecarboxamide], the Kd lay within 1000 to 10000 pM.

Take `CS(=O)(=O)c1cc([C@@H]2CCCOC2)ccc1Nc1cc(NC(=O)C2CC2)nc2[nH]c(C(F)F)nc12` [I-253, (S)—N-(2-(difluoromethyl)-7-((2-(methylsulfonyl)-4-(tetrahydro-2H-pyran-3-yl)phenyl)amino)-3H-imidazo[4,5-b]pyridin-5-yl)cyclopropanecarboxamide]: the Kd lay within 100 to 500 pM.

Compound `Cc1nc2c(Nc3ccc([C@@H]4CCCOC4)cc3S(C)(=O)=O)cc(NC(=O)C3CC3)nc2[nH]1` [I-255, (S)—N-(2-methyl-7-((2-(methylsulfonyl)-4-(tetrahydro-2H-pyran-3-yl)phenyl)amino)-3H-imidazo[4,5-b]pyridin-5-yl)cyclopropanecarboxamide] had a Kd of 100 to 500 pM.

The compound `Cc1nc2c(Nc3ccc([C@H]4CCCCO4)cc3S(C)(=O)=O)cc(NC(=O)[C@H]3CC3(F)F)nc2[nH]1` [I-256, (R)-2,2-difluoro-N-(2-methyl-7-((2-(methylsulfonyl)-4-((R)-tetrahydro-2H-pyran-2-yl)phenyl)amino)-3H-imidazo[4,5-b]pyridin-5-yl)cyclopropane-1-carboxamide] gave a Kd of 500 to 1000 pM.

In turn, `Cc1nc2c(Nc3ccc([C@H]4CCCCO4)cc3S(C)(=O)=O)cc(NC(=O)[C@@H]3CC3(F)F)nc2[nH]1` [I-257, (S)-2,2-difluoro-N-(2-methyl-7-((2-(methylsulfonyl)-4-((R)-tetrahydro-2H-pyran-2-yl)phenyl)amino)-3H-imidazo[4,5-b]pyridin-5-yl)cyclopropane-1-carboxamide] came in with a Kd of 1000 to 10000 pM.

As for `CS(=O)(=O)c1cc(C(F)(F)F)ccc1Nc1cc(NC(=O)C2CC2)nc2[nH]c(C(F)F)nc12` [I-258, N-(2-(difluoromethyl)-7-((2-(methylsulfonyl)-4-(trifluoromethyl)phenyl)amino)-3H-imidazo[4,5-b]pyridin-5-yl)cyclopropanecarboxamide], the Kd is 1000 to 10000 pM.

Compound `Cc1nc2c(Nc3ccc(C(F)(F)F)cc3S(C)(=O)=O)cc(NC(=O)C3CC3)nc2[nH]1` [I-259, N-(2-methyl-7-((2-(methylsulfonyl)-4-(trifluoromethyl)phenyl)amino)-3H-imidazo[4,5-b]pyridin-5-yl)cyclopropanecarboxamide] showed a Kd of 1000 to 10000 pM.

Regarding `Cc1nc2c(Nc3ccc(-c4cncn4C)cc3S(C)(=O)=O)cc(NC(=O)[C@@H]3C[C@@H]3F)nc2[nH]1` [I-260, (1S,2S)-2-fluoro-N-(2-methyl-7-((4-(1-methyl-1H-imidazol-5-yl)-2-(methylsulfonyl)phenyl)amino)-3H-imidazo[4,5-b]pyridin-5-yl)cyclopropane-1-carboxamide], the Kd is less than 100 pM.

`Cc1nc2c(Nc3ccc(-c4cncn4C)cc3S(C)(=O)=O)cc(NC(=O)[C@H]3C[C@H]3F)nc2[nH]1` [I-261, (1R,2R)-2-fluoro-N-(2-methyl-7-((4-(1-methyl-1H-imidazol-5-yl)-2-(methylsulfonyl)phenyl)amino)-3H-imidazo[4,5-b]pyridin-5-yl)cyclopropane-1-carboxamide] gave a Kd of 100 to 500 pM.

For `Cc1nc2c(Nc3ccc(-c4nn(C)cc4C)cc3S(C)(=O)=O)cc(NC(=O)[C@@H]3C[C@@H]3F)nc2[nH]1` [I-262, (1S,2S)—N-(7-((4-(1,4-dimethyl-1H-pyrazol-3-yl)-2-(methylsulfonyl)phenyl)amino)-2-methyl-3H-imidazo[4,5-b]pyridin-5-yl)-2-fluorocyclopropane-1-carboxamide], the Kd was 100 to 500 pM.

The compound `Cc1nc2c(Nc3ccc(-c4nn(C)cc4C)cc3S(C)(=O)=O)cc(NC(=O)[C@H]3C[C@H]3F)nc2[nH]1` [I-263, (1R,2R)—N-(7-((4-(1,4-dimethyl-1H-pyrazol-3-yl)-2-(methylsulfonyl)phenyl)amino)-2-methyl-3H-imidazo[4,5-b]pyridin-5-yl)-2-fluorocyclopropane-1-carboxamide] had a Kd of less than 100 pM.

`Cc1nc2c(Nc3ccc(-c4cnn(C)c4C)cc3S(C)(=O)=O)cc(NC(=O)C3CC3)nc2[nH]1` [I-265, N-(7-((4-(1,5-dimethyl-1H-pyrazol-4-yl)-2-(methylsulfonyl)phenyl)amino)-2-methyl-3H-imidazo[4,5-b]pyridin-5-yl)cyclopropanecarboxamide]: the Kd was less than 100 pM.

(Values after patent US10647713B2 (Nimbus Lakshmi, Inc., priority 2016, dated 2020).)
